Some test systems named below: M14 melanoma; NCI-H23 lung; SR leukemia; UACC-257 melanoma; COLO 205 colon; NCI-H226 lung; CAKI-1 renal; BT-549 breast; HCT-15 colon; OVCAR-8 ovarian.
Common to all, as to assay: inhibition of tumour cell growth, NCI panel, 48 h

Each structure is given as a SMILES string. “And” between values parts separate entries of the source, which are not always exact repeats. Equal entries are not always repeated.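 All cell lines were grown in 96-well plates and treated with compound for 48 hours. GI50 marks 50% less growth. TGI: total growth inhibition.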 A value given as a limit tells only on which side of the number the result lay.

As for `CN[C@@H](C)C(=O)N[C@H](C(=O)N1CCC[C@H]1C(=O)Nc1sc(-c2ncco2)nc1-c1ccccc1)C1CCCCC1`, the GI50 with M14 melanoma was 18.5 µM; in the assay on NCI-H23 lung, 25.8 µM; in the assay on SR leukemia it was 14 µM; in the assay on UACC-257 melanoma, 17.5 µM; in the assay on COLO 205 colon, 18.7 µM; with NCI-H226 lung, greater than 100 µM. Besides, the GI50 is 51.8 µM with CAKI-1 renal, 0.0598 µM with BT-549 breast, 22.6 µM in the assay with HCT-15 colon and 17.2 µM in the assay with OVCAR-8 ovarian. In addition, the TGI with M14 melanoma was 36.7 µM; in the assay with NCI-H23 lung, greater than 100 µM; in the assay on SR leukemia, 54.7 µM; in the assay with UACC-257 melanoma it was 34 µM; in the assay with COLO 205 colon, 37.9 µM; in the assay on NCI-H226 lung, greater than 100 µM. For the same compound, the TGI in the assay on CAKI-1 renal is greater than 100 µM; with BT-549 breast, 33.6 µM; with HCT-15 colon, greater than 78.7 µM; in the assay with OVCAR-8 ovarian, 42.7 µM.
As to `O=C1NC(=O)C(N2C(=O)c3ccccc3C2=O)CC1O` (stereo not given), the GI50 in the assay on M14 melanoma, in the assay on NCI-H23 lung, in the assay on SR leukemia, with UACC-257 melanoma, with COLO 205 colon and in the assay with NCI-H226 lung was greater than 100 µM each time. Further, the GI50 in the assay with CAKI-1 renal, in the assay with BT-549 breast, in the assay with HCT-15 colon and in the assay on OVCAR-8 ovarian was greater than 100 µM throughout. Moreover, the TGI with M14 melanoma, with NCI-H23 lung, in the assay on SR leukemia, in the assay on UACC-257 melanoma, in the assay on COLO 205 colon and in the assay with NCI-H226 lung was greater than 100 µM each time. For the same compound, the TGI in the assay with CAKI-1 renal, with BT-549 breast, with HCT-15 colon and in the assay with OVCAR-8 ovarian was greater than 100 µM each time.
As to `O=c1[nH]c(=O)n(C2CC(O)C(COP(=O)(OCc3ccc([N+](=O)[O-])o3)N(CCCCCl)CC(O)CO)O2)cc1F` (stereo not given), the GI50 in the assay on M14 melanoma is 0.365 µM; in the assay on NCI-H23 lung, 2.79 µM; in the assay on SR leukemia it was less than 0.0269 µM; with UACC-257 melanoma, 0.0213 µM; with COLO 205 colon, greater than 22.5 µM; in the assay with NCI-H226 lung, 0.157 µM. For the same compound, the GI50 with CAKI-1 renal was 0.191 µM; with BT-549 breast, 0.663 µM; with HCT-15 colon, 4.53 µM; in the assay on OVCAR-8 ovarian, 0.182 µM. Besides, the TGI is 2.23 µM with M14 melanoma; greater than 100 µM with NCI-H23 lung; greater than 100 µM with SR leukemia; 0.852 µM in the assay on UACC-257 melanoma; greater than 100 µM in the assay with COLO 205 colon; greater than 55.2 µM in the assay on NCI-H226 lung. Also, the TGI is 0.589 µM with CAKI-1 renal, greater than 100 µM in the assay on BT-549 breast, greater than 100 µM in the assay with HCT-15 colon and greater than 100 µM with OVCAR-8 ovarian.
For the compound `C=CC(=O)Nc1cccc(Oc2nc(Nc3ccc(N4CCN(C)CC4)cc3)nc3ccsc23)c1`, the GI50 in the assay on M14 melanoma was 1.87 µM and 2.01 µM; with NCI-H23 lung, 4.27 µM and 9.48 µM; in the assay with SR leukemia, 2.23 µM; with UACC-257 melanoma, 2.6 µM and 1.98 µM; in the assay on COLO 205 colon, 2.19 µM; with NCI-H226 lung, 8.23 µM and 10.4 µM. Further, the GI50 was 1.99 µM with CAKI-1 renal; 2.8 µM and 3.62 µM with BT-549 breast; 2.32 µM and 2.54 µM in the assay on HCT-15 colon; 3.59 µM and 3.63 µM with OVCAR-8 ovarian. For the same compound, the TGI was 3.75 µM and 3.8 µM with M14 melanoma; > 10 µM and 36.4 µM with NCI-H23 lung; 5.73 µM in the assay on SR leukemia; 8.59 µM and 3.83 µM in the assay on UACC-257 melanoma; 5.27 µM in the assay on COLO 205 colon; > 10 µM and 36.9 µM in the assay on NCI-H226 lung. Moreover, the TGI in the assay with CAKI-1 renal was greater than 10 µM; with BT-549 breast, > 10 µM and 14.6 µM; with HCT-15 colon, 9.5 µM and 10.6 µM; with OVCAR-8 ovarian, > 10 µM and 11.7 µM.
Regarding `CN1C(=O)N(C)C2C1NN=c1s/c(=C\c3ccc(C(F)(F)F)cc3)c(=O)n12` (stereo not given), the GI50 is 1.36 µM in the assay on M14 melanoma; 2.49 µM with NCI-H23 lung; 0.329 µM in the assay on SR leukemia; 14.5 µM in the assay on UACC-257 melanoma; 0.776 µM in the assay with COLO 205 colon; 27 µM in the assay with NCI-H226 lung. Moreover, the GI50 with CAKI-1 renal is 3.39 µM; in the assay with BT-549 breast it was 3.66 µM; in the assay on HCT-15 colon it was 0.488 µM; in the assay on OVCAR-8 ovarian, 2.71 µM. Further, the TGI was greater than 100 µM with M14 melanoma; greater than 100 µM in the assay with NCI-H23 lung; greater than 100 µM with SR leukemia; greater than 100 µM in the assay on UACC-257 melanoma; 4.72 µM in the assay with COLO 205 colon; greater than 100 µM with NCI-H226 lung. In addition, the TGI with CAKI-1 renal is greater than 100 µM; with BT-549 breast, greater than 100 µM; in the assay with HCT-15 colon, greater than 100 µM; in the assay with OVCAR-8 ovarian it was 55.7 µM.
For `O=C1/C(=C/c2ccccc2[N+](=O)[O-])Cc2ccccc21`, the GI50 is 1.97 µM with M14 melanoma; 2.2 µM in the assay on NCI-H23 lung; 0.495 µM in the assay with SR leukemia; 1.83 µM in the assay on UACC-257 melanoma; 1.3 µM in the assay on COLO 205 colon; 2.1 µM in the assay with NCI-H226 lung. Also, the GI50 is 3.13 µM in the assay on CAKI-1 renal, 1.83 µM in the assay on BT-549 breast, 1.66 µM in the assay with HCT-15 colon and 2.12 µM in the assay with OVCAR-8 ovarian. In addition, the TGI is 3.96 µM in the assay with M14 melanoma; 7 µM with NCI-H23 lung; greater than 100 µM with SR leukemia; 4.35 µM with UACC-257 melanoma; 2.57 µM with COLO 205 colon; 9.03 µM with NCI-H226 lung. Besides, the TGI with CAKI-1 renal was greater than 100 µM; in the assay with BT-549 breast, 4.49 µM; in the assay with HCT-15 colon it was 4.71 µM; with OVCAR-8 ovarian, 5.4 µM.
Regarding `COc1ccc(-c2nc(Nc3cc(C)[nH]n3)c3ccccc3n2)cc1`, the GI50 is 0.75 µM with M14 melanoma; 5.47 µM in the assay with NCI-H23 lung; 0.581 µM in the assay with SR leukemia; 13 µM in the assay with UACC-257 melanoma; 1.5 µM with COLO 205 colon; 1.62 µM in the assay on NCI-H226 lung. In addition, the GI50 in the assay on CAKI-1 renal was 0.52 µM; in the assay with BT-549 breast it was 3.07 µM; in the assay on HCT-15 colon, 1.34 µM; in the assay on OVCAR-8 ovarian, 6.16 µM. In addition, the TGI is 31.4 µM with M14 melanoma; greater than 100 µM in the assay on NCI-H23 lung; 25.4 µM in the assay on SR leukemia; 65.2 µM in the assay with UACC-257 melanoma; 3.61 µM in the assay on COLO 205 colon; greater than 33.3 µM with NCI-H226 lung. Besides, the TGI with CAKI-1 renal was greater than 64.1 µM; in the assay with BT-549 breast, 12.6 µM; in the assay on HCT-15 colon, greater than 100 µM; with OVCAR-8 ovarian, 99.8 µM.

The record behind these values is PubChem BioAssay (NCI).
